Earlier results as cited in paper PMC9826446 (Journal of Bone and Mineral Research, 2022).

Assays:
ectopic calcification = settings: animal models of PXE; ref [1], [7], [19]
vascular calcification = settings: patients with PXE, phase 2 trial; ref [27]
TNAP = settings: not TNAP‐specific; ref [15], [16]

## COc1ccc(Cl)cc1S(=O)(=O)Nc1cncc(C(N)=O)c1 [SBI‐425, 5‐((5‐chloro‐2‐methoxyphenyl)sulfonamido)nicotinamide]
Ectopic calcification
  anticalcification effects: significant anticalcification effects

## CC(O)(P(=O)(O)O)P(=O)(O)O [etidronate]
Vascular calcification
  vascular calcification: may reduce vascular calcification

## c1ccc([C@H]2CN3CCSC3=N2)cc1 [levamisole]
TNAP
  inhibition on TNAP: only weak inhibition

## Cn1c(=O)c2[nH]cnc2n(C)c1=O [theophylline]
TNAP
  inhibition on TNAP: only weak inhibition
